Laboratory results taken from DBAASP.
≈ marks a conversion by molar mass, not a printed value. Where “and” joins values, the source holds several entries; their conditions need not be identical. Identical values can stand only once.

Columns and labels:
Assay in all cases: ≥ marks a high value that may be exact or a test limit, other limits are often not marked, values filed in µg/mL are converted to µM
[1] = system: Escherichia coli MG1655
[2] = system: Bacillus subtilis 168 HT
[3] = system: Escherichia coli ATCC 11219
[4] = system: Staphylococcus aureus ATCC 6538
[5] = system: Klebsiella pneumoniae ATCC 10031
[6] = system: Pseudomonas aeruginosa ATCC 13388
[7] = system: Salmonella enterica subsp. enterica serovar Typhimurium ATCC 14028
[8] = system: Escherichia coli ATCC 25922
[9] = system: Bacillus subtilis ATCC 6633
[10] = system: Pseudomonas aeruginosa ATCC BAA-427
[11] = system: Staphylococcus aureus ATCC 25923
[12] = system: Listeria innocua
[13] = system: Escherichia coli
[14] = system: Micrococcus luteus A270
[15] = system: Salmonella enterica subsp. enterica serovar Enteritidis
[16] = system: Staphylococcus aureus
[17] = system: Micrococcus luteus
[18] = system: Micrococcus luteus ATCC 4698
[19] = system: Staphylococcus epidermidis ATCC 12228
[20] = system: Escherichia coli DH5alpha
[21] = system: Mycobacterium tuberculosis H37Rv
[22] = system: Escherichia coli SBS 363
[23] = system: Candida albicans MDM8

For `CC[C@H](C)[C@H](NC(=O)[C@@H](NC(=O)[C@H](CCCCN)NC(=O)[C@H](CCCCN)NC(=O)[C@H](Cc1ccccc1)NC(=O)[C@@H](N)CCCCN)C(C)C)C(=O)N[C@@H](Cc1c[nH]c2ccccc12)C(=O)N[C@@H](CCCCN)C(=O)N[C@@H](CO)C(=O)N[C@@H](Cc1ccccc1)C(=O)N[C@@H](CC(C)C)C(=O)O` [KFKKVIWKSFL], the MIC [1] was at least 90 µM and the MIC [2] was at least 45 µM.
Compound `CC[C@H](C)[C@H](NC(=O)CN)C(=O)N[C@@H](Cc1cnc[nH]1)C(=O)N[C@@H](CC(=O)O)C(=O)N[C@H](C(=O)N[C@@H](CC(C)C)C(=O)N[C@@H](CCCCN)C(=O)N[C@@H](Cc1ccc(O)cc1)C(=O)NCC(=O)N[C@@H](CCCCN)C(=O)N[C@@H](C)C(=O)N[C@@H](CO)C(N)=O)[C@@H](C)CC` [GIHDILKYGKAS] has an MIC [3] of at least 50 µM, an MIC [4] of 10 µM (≈ 13 µg/mL) and an MIC [5] of 30 µM (≈ 39 µg/mL). For the same compound, the MIC [6] was 30 µM (≈ 39 µg/mL) and the MIC [7] was 10 µM (≈ 13 µg/mL).
With `CC[C@H](C)[C@H](NC(=O)CN)C(=O)N[C@@H](Cc1cnc[nH]1)C(=O)N[C@@H](CC(=O)O)C(=O)N[C@@H](C)C(=O)N[C@@H](CC(C)C)C(=O)N[C@@H](CCCCN)C(=O)N[C@@H](Cc1ccc(O)cc1)C(=O)NCC(=O)N[C@@H](CCCCN)C(=O)N1CCC[C@H]1C(=O)N[C@@H](CO)C(N)=O` [GIHDALKYGKPS] the MIC [3] was 20 µM (≈ 25.7 µg/mL), the MIC [4] was 20 µM (≈ 25.7 µg/mL) and the MIC [5] was 20 µM (≈ 25.7 µg/mL). The MIC [6] was 10 µM (≈ 12.8 µg/mL) and the MIC [7] was 4 µM (≈ 5.14 µg/mL).
For `CC[C@H](C)[C@H](NC(=O)CNC(=O)[C@@H](N)Cc1c[nH]c2ccccc12)C(=O)N[C@@H](Cc1cnc[nH]1)C(=O)N[C@@H](CCCN=C(N)N)C(=O)N[C@H](C(=O)N[C@@H](CC(C)C)C(=O)N[C@@H](CCCCN)C(=O)N[C@@H](Cc1ccc(O)cc1)C(=O)NCC(=O)N[C@@H](CCCCN)C(=O)N1CCC[C@H]1C(=O)N[C@@H](CO)C(=O)O)[C@@H](C)CC` [WGIHRILKYGKPS], the MIC [3] was 8 µM (≈ 12.4 µg/mL), the MIC [4] was 8 µM (≈ 12.4 µg/mL) and the MIC [5] was 12 µM (≈ 18.7 µg/mL). The MIC [6] was 12 µM (≈ 18.7 µg/mL) and the MIC [7] was 10 µM (≈ 15.5 µg/mL).
`CC(C)C[C@H](NC(=O)[C@H](CC(C)C)NC(=O)[C@H](CCCN=C(N)N)NC(=O)[C@H](CCCN=C(N)N)NC(=O)[C@H](CCCCN)NC(=O)[C@H](C)NC(=O)[C@H](CCCCN)NC(=O)[C@@H](N)CCCCN)C(=O)N[C@@H](CCCCN)C(=O)N[C@@H](CCCCN)C(=O)O` [KKAKRRLLKK] gave an MIC [1] of at least 101 µM and an MIC [2] of at least 101 µM.
For `CC(C)C[C@H](NC(=O)[C@H](CC(=O)O)NC(=O)[C@H](CC(C)C)NC(=O)[C@H](CCCCN)NC(=O)[C@H](CC(C)C)NC(=O)[C@H](CC(=O)O)NC(=O)[C@H](CC(C)C)NC(=O)[C@H](CCCCN)NC(=O)[C@H](CC(C)C)NC(=O)[C@H](CC(=O)O)NC(=O)[C@H](CC(C)C)NC(=O)[C@@H](N)CCCCN)C(=O)O` [KLDLKLDLKLDL], the MIC [8] was over 100 µM, the MIC [9] was at least 100 µM and the MIC [10] was at least 100 µM. The MIC [11] was over 100 µM.
`C[C@@H](O)[C@H](N)C(=O)N[C@@H](CO)C(=O)N[C@@H](CCCCN)C(=O)N[C@@H](Cc1ccc(O)cc1)C(=O)N[C@@H](CCCN=C(N)N)C(=O)O` [TSKYR] showed an MIC [12] of 1 µM (≈ 0.654 µg/mL), an MIC [13] of 9 µM (≈ 5.88 µg/mL) and an MIC [14] of 9 µM (≈ 5.88 µg/mL). The MIC [15] was 5 µM and 4.6 µM, the MIC [16] was 1 µM (≈ 0.654 µg/mL) and the MIC [17] was 9 µM (≈ 5.88 µg/mL).
Compound `CC(C)C[C@H](NC(=O)[C@H](CC(C)C)NC(=O)[C@H](CCCCN)NC(=O)[C@H](CO)NC(=O)[C@@H](NC(=O)[C@@H](NC(=O)[C@H](CCCCN)NC(=O)[C@H](Cc1ccccc1)NC(=O)[C@H](CC(C)C)NC(=O)[C@H](C)NC(=O)CNC(=O)[C@H](CC(C)C)NC(=O)[C@@H](N)Cc1ccccc1)C(C)C)C(C)C)C(=O)O` [FLGALFKVVSKLL] has an MIC [18] of 4.18 µM (≈ 6 µg/mL), an MIC [4] of 5.58 µM (≈ 8 µg/mL) and an MIC [19] of 9.76 µM (≈ 14 µg/mL). The MIC [20] was 27.9 µM (≈ 40 µg/mL).
`CC[C@H](C)[C@H](NC(=O)CN)C(=O)NCC(=O)N[C@@H](CCCCN)C(=O)N[C@@H](Cc1ccccc1)C(=O)N[C@@H](CC(C)C)C(=O)N[C@@H](CCCCN)C(=O)N[C@@H](CO)C(=O)N[C@@H](CCCCN)C(=O)NCC(=O)N[C@@H](CCCCN)C(=O)N[C@@H](Cc1ccccc1)C(=O)NCC(=O)N[C@@H](CCCCN)C(=O)N[C@@H](C)C(=O)O` [GIGKFLKSKGKFGKA] showed an MIC [21] of at least 192 µM.
`CSCC[C@H](NC(=O)CNC(=O)[C@H](CC(C)C)NC(=O)[C@H](CCCN=C(N)N)NC(=O)[C@H](CCCN=C(N)N)NC(=O)[C@H](C)N)C(=O)N[C@@H](CC(N)=O)C(=O)N1CCC[C@H]1C(=O)N[C@@H](Cc1c[nH]c2ccccc12)C(=O)N[C@@H](CCCCN)C(=O)N[C@H](C(=O)N1CCC[C@H]1C(=O)N1CCC[C@H]1C(=O)N[C@@H](C)C(=O)N[C@@H](CCCCN)C(=O)N1CCC[C@H]1C(=O)N[C@@H](CCCCN)C(=O)NCC(=O)N[C@@H](CO)C(=O)N[C@@H](CCCCN)C(=O)O)[C@@H](C)O` [ARRLGMNPWKTPPAKPKGSK] gave an MIC [21] of at least 90.1 µM.
Compound `CC[C@H](C)[C@H](NC(=O)CNC(=O)[C@@H](NC(=O)[C@H](CCCCN)NC(=O)[C@@H](NC(=O)CNC(=O)[C@H](CC(C)C)NC(=O)[C@H](Cc1c[nH]c2ccccc12)NC(=O)[C@H](CCCN=C(N)N)NC(=O)[C@@H](N)CC(C)C)[C@@H](C)O)C(C)C)C(=O)N[C@@H](CC(C)C)C(=O)N[C@@H](CCCCN)C(=O)O` [LRWLGTKVGILK] has an MIC [1] of at least 92 µM and an MIC [2] of at least 92 µM.
In the case of `CC[C@H](C)[C@H](NC(=O)CN)C(=O)N[C@@H](Cc1cnc[nH]1)C(=O)N[C@@H](CC(=O)O)C(=O)N[C@H](C(=O)N[C@@H](CC(C)C)C(=O)N[C@@H](CCCCN)C(=O)N[C@@H](Cc1ccc(O)cc1)C(=O)NCC(=O)N[C@@H](CCCCN)C(=O)N[C@@H](CCCCN)C(=O)N[C@@H](CO)C(N)=O)[C@@H](C)CC` [GIHDILKYGKKS], the MIC [3] is reported as 10 µM (≈ 13.6 µg/mL), the MIC [4] is reported as 30 µM (≈ 40.7 µg/mL) and the MIC [5] is reported as 20 µM (≈ 27.2 µg/mL). For the same compound, the MIC [6] was 20 µM (≈ 27.2 µg/mL) and the MIC [7] was 20 µM (≈ 27.2 µg/mL).
With `CC[C@H](C)[C@H](NC(=O)[C@H](CC(C)C)NC(=O)[C@H](CO)NC(=O)[C@H](CC(C)C)NC(=O)[C@H](CC(C)C)NC(=O)[C@@H](N)CCCN=C(N)N)C(=O)N[C@@H](CCCN=C(N)N)C(=O)N[C@@H](CCCCN)C(=O)N[C@@H](CC(C)C)C(=O)N[C@H](C(=O)N[C@H](C(N)=O)[C@@H](C)O)[C@@H](C)CC` [RLLSLIRKLIT] the MIC [14] was 0.5 µM (≈ 0.662 µg/mL), the MIC [22] was 1.56 µM (≈ 2.07 µg/mL) and the MIC [23] was 0.78 µM (≈ 1.03 µg/mL).
Compound `CC(C)C[C@H](NC(=O)[C@H](CC(C)C)NC(=O)[C@H](CCCCN)NC(=O)[C@H](CO)NC(=O)[C@H](CC(C)C)NC(=O)[C@H](C)NC(=O)[C@H](CCCCN)NC(=O)[C@@H](NC(=O)[C@H](CC(C)C)NC(=O)[C@H](C)NC(=O)CNC(=O)[C@H](CC(C)C)NC(=O)[C@@H](N)Cc1ccccc1)C(C)C)C(=O)O` [FLGALVKALSKLL] has an MIC [18] of 3.64 µM (≈ 5 µg/mL), an MIC [4] of 5.1 µM (≈ 7 µg/mL) and an MIC [19] of 8.01 µM (≈ 11 µg/mL). For the same compound, the MIC [20] was 21.9 µM (≈ 30 µg/mL).
With `CC(C)C[C@H](N)C(=O)N[C@@H](CO)C(=O)N[C@@H](Cc1ccccc1)C(=O)N1CCC[C@H]1C(=O)N[C@H](C(=O)N[C@H](C(=O)N[C@@H](CCCCN)C(=O)N[C@H](C(=O)N[C@@H](Cc1ccc(O)cc1)C(=O)N[C@@H](Cc1ccccc1)C(=O)N1CCC[C@H]1C(=O)N[C@@H](Cc1cnc[nH]1)C(=O)N[C@@H](Cc1ccccc1)C(=O)O)[C@@H](C)O)[C@@H](C)O)[C@@H](C)O` [LSFPTTKTYFPHF] the MIC [12] was 1 µM (≈ 1.59 µg/mL), the MIC [13] was 9 µM (≈ 14.3 µg/mL) and the MIC [14] was 5 µM (≈ 7.93 µg/mL). It also gave an MIC [15] of 5 µM (≈ 7.93 µg/mL).
